Broadly, the zone of inhibition is the extent of the growth-free halo in a diffusion test. The low end stands for a weaker effect on the plate, the high end for a stronger effect on the plate.

The structures appear in SMILES notation. Converted amounts (≈) assume the structure as drawn.

The values that follow come from PMC11802822, “Comprehensive safety and toxicity analysis of 2,2’-Bipyridine derivatives in combating MRSA biofilm formation and persistence” (Frontiers in Cellular and Infection Microbiology, 2025).

For series [1], the system named is P. aeruginosa (MTCC1934). Briefly: Agar well diffusion. The conditions noted are these: P. aeruginosa (MTCC1934); 50 µg/ml; ND = Not detected. In general terms: A growth-free zone around the sample is the usual read-out of agar diffusion tests.
The test system of series [2] is MTCC 737. Kind of series: Biofilm inhibition assay (crystal violet). The conditions noted are these: S. aureus; at MIC or higher concentrations.
Method: After incubation, cells were washed with 1X PBS, and stained with 100 µl of Crystal Violet dye for 15 min, and rinsed again with 1X PBS.
Series [3] relates to K. pneumoniae (MTCC 618). Briefly: Agar well diffusion. The note with it: 50 µg/ml, ND = Not detected.
The test system of series [4] is E. coli (MTCC739). Briefly: Agar well diffusion. The conditions noted are these: E. coli (MTCC739); 50 µg/ml; ND = Not detected.
Series [5] has as its system MRSA 831. Kind of series: Broth microdilution MIC. The conditions noted are these: 18 h. In general terms: Broth dilution looks for growth in wells or tubes with falling amounts of substance.
For another series, the system named is B. subtilis (MTCC 441). Briefly: Agar well diffusion. The note with it: B. subtilis (MTCC 441); 50 µg/ml; ND = Not detected.
Series [6] relates to S. aureus (MTCC737). Kind of series: Agar well diffusion.
In series [7] the test system is E. coli (MTCC739). Kind of series: Broth microdilution MIC. The conditions noted are these: E. coli (MTCC739); 18 h.
In series [8] the test system is MRSA 831. Kind of series: Neutropenic thigh infection model in mice. The conditions noted are these: neutropenic BALB/c mice, MRSA 831 10^8 CFU/ml, oral 30 mg/kg, after 2 h and 24 h, vs untreated control.
The subject of series [9] is P. aeruginosa (MTCC1934). Kind of series: Broth microdilution MIC. The note with it: P. aeruginosa (MTCC1934); 18 h.
The subject of series [10] is V. cholerae (MTCC 3906). Briefly: Broth microdilution MIC. In kind it is cell-based, Vibrio cholerae. The conditions noted are these: V. cholerae (MTCC 3906); 18 h.
In a further series the test system is MRSA 831 (MRSA). Briefly: Agar well diffusion.
The test system of series [11] is MTCC 737. Briefly: PI uptake assay. In kind it is cell-based, Staphylococcus aureus. The conditions noted are these: derivatives 100 µg/ml, Polymyxin B 10 μM, 1 h. Here is the method: (§1) MTCC 737 and MRSA 831 were grown, washed, and resuspended in 5 mM HEPES (pH 7.2), with the OD600 normalized to 0.5. […] Polymyxin B (10 μM), a membrane destabilizer, was used as a reference control. Drug-free and vehicle controls (cells treated with 0.5% DMSO) were included to analyze changes in fluorescence. After 1 h of treatment, cultures were centrifuged and stained with 5 µM PI dye for 15 min. Following staining, the cultures were washed twice to remove the extra dye, and fluorescence was recorded at 485 nm excitation and 525 nm emission wavelengths ([Zhou et al., 2020]).

Series [12] relates to MRSA 831. Kind of series: PI uptake assay. In kind it is cell-based, methicillin-resistant S. aureus. The note with it: derivatives 100 µg/ml, Polymyxin B 10 μM, 1 h. Here is the method:
as §1

Series [13] has as its system S. aureus (MTCC737). Briefly: Broth microdilution MIC.
Series [14] concerns V. cholerae (MTCC 3906). Kind of series: Agar well diffusion. In kind it is cell-based, Vibrio cholerae. The note with it: V. cholerae (MTCC 3906); 50 µg/ml; ND = Not detected.
Series [15] concerns K. pneumoniae (MTCC 618). Briefly: Broth microdilution MIC. The conditions noted are these: K. pneumoniae (MTCC 618); 18 h.
The subject of another series is 3T3-L1 cell line. Kind of series: Cytotoxicity (MTT assay). In kind it is cell-based, murine. On the procedure: The murine fibroblast 3T3 L-1 cell line was procured from the National Centre for Cell Science (NCCS), Pune, India. The 3T3 L-1 cells were incubated at 37°C in an incubator maintained at 95% humidity and 5% CO2 in DMEM medium complemented with 10% fetal bovine serum (FBS) and 1% penicillin-streptomycin.
Synthesized derivatives were evaluated for cytotoxicity in a 3T3-L1 cell line using the MTT assay ([Ernawati et al., 2022]). 8000 cells/well were added in 96-well tissue culture flat-bottom microtiter plates for 24 h and then incubated with synthesized molecules (0-400 µg/ml) for 48 h at 37°C in a CO2 incubator. DMSO was used as solvent at a concentration of 0.1% to ensure that any observed effects were not attributable to the solvent itself, whereas 1 µg/ml doxorubicin was used in toxicity tests as a positive control. Subsequently, the media was replaced with MTT solution (100 µl) diluted in fresh media (0.5 mg/ml), and incubated for 4 h. After incubation, 100 µl of stop solution (50% DMF with 20% SDS) was added to dissolve the formazan crystals, and the plates were further incubated for 1 h. Absorbance was measured at 570 nm using BioTEK Synergy multi-plate reader ([Mosmann, 1983]; [Pratelli et al., 2023]). Percent cell viability was calculated using the following formula:
Cell viability (%)=Absorbance (Untreated - blank) - Absorbance (Test sample- blank)/Absorbance (Untreated - blank)×100
(Formazan colour is commonly taken as a measure of viable cells.)

Series [16] relates to MRSA 831. Briefly: Transmission electron microscopy. The note with it: 100 µg/ml, 12 h.
Series [17] concerns MTCC 737. Kind of series: Transmission electron microscopy. The note with it: S. aureus MTCC 737; 100 µg/ml, 12 h.
A further series concerns red blood cells. The conditions noted are these: ref Chen et al., 2011; Papalia et al., 2021; cited from earlier work.
In series [18] the test system is MRSA 831. Kind of series: Biofilm imaging by confocal laser scanning microscopy (SYTO 9/PI). In kind it is cell-based, methicillin-resistant S. aureus. The conditions noted are these: derivatives 100 µg/ml, 24 h. An excerpt: Untreated wells were used as a control. […] Using SYTO 9 and PI dyes. […] Two independent experiments were done in triplicate.
For series [19], the system named is MTCC 737. Described as above. The conditions noted are these: derivatives 100 µg/ml, 24 h.
Series [20] deals with MTCC 737. Kind of series: Neutropenic thigh infection model in mice. The note with it: neutropenic BALB/c mice, MTCC 737 10^6 CFU/ml, oral 30 mg/kg, 48 h, vs untreated group. In kind it is in vivo, Staphylococcus aureus.
The test system of another series is MTCC 737 persister cells. Briefly: Persister killing assay. In kind it is cell-based, Staphylococcus aureus. The note with it: S. aureus persisters. Here is the method:
To evaluate the persister-killing activity of 2,2’-Bipy derivatives, MTCC 737 and MRSA 831 cells were grown overnight to the stationary phase at 37°C ([Kim et al., 2018b]). […] The bacterial densities of persisters were recorded at OD600 at hourly intervals from 0 to 6 h.

The next series concerns MRSA. Set-up: method as in Lee et al., 2017. The conditions noted are these: ref Lee et al., 2017; cited from earlier work.

Take `C=CCOc1cc(C(C)=NO)nc(-c2ccccn2)c1` [NPS1, N-[1-(4-allyloxy[2,2’-bipyridin]-6-yl)ethyldiene]hydroxylamine]: the Zone of inhibition in the series with P. aeruginosa (MTCC1934) [1] was 7.67 ± 1.53 mm; with K. pneumoniae (MTCC 618) [3] it was 6.00 ± 3.46 mm; with E. coli (MTCC739) [4], 9.33 ± 0.58 mm; with B. subtilis (MTCC 441) it was 5.33 ± 2.31 mm; in the series with S. aureus (MTCC737) [6] (S. aureus (MTCC737), 50 µg/ml, ND = Not detected), 17.00 ± 2.65 mm; in the series on MRSA 831 (MRSA) (MRSA 831, 50 µg/ml, ND = Not detected), 8.67 ± 0.58 mm. This compound had a Zone of inhibition in the series with V. cholerae (MTCC 3906) [14] of 15.33 ± 1.53 mm. For the same compound, the “Biofilm formation inhibition (in words)” value with MTCC 737 [2] is listed as “highly effective”. The Minimum inhibitory concentration was 50 µg/mL (≈ 186 µM) with MRSA 831 [5] (MRSA 831); greater than 100 µg/mL in the series on E. coli (MTCC739) [7]; greater than 100 µg/mL in the series with P. aeruginosa (MTCC1934) [9]; 12.5 µg/mL (≈ 46.4 µM) in the series with V. cholerae (MTCC 3906) [10]; 50 µg/mL (≈ 186 µM) with S. aureus (MTCC737) [13] (S. aureus (MTCC737), 18 h); greater than 100 µg/mL in the series on K. pneumoniae (MTCC 618) [15]. The “Reduction in the bacterial load in thigh tissue” value with MRSA 831 [8] was ~ 1.8 log10. For the same compound, the “PI fluorescence (membrane integrity)” value in the series with MTCC 737 [11] and in the series on MRSA 831 [12] was “exhibited fluorescence indicating membrane instability” in each case.
With `CCC(=NO)c1cc(OC)cc(-c2cc(OC)ccn2)n1` [NPS6, N-[1-(4,4’-dimethoxy[2,2’-bipyridin]-6-yl)propyldiene]hydroxylamine], the “IC50 (cytotoxicity, MTT)” value in the series on 3T3-L1 cell line amounted to 168.1 µg/mL.
Take `CN[C@H](CC(C)C)C(=O)N[C@H]1C(=O)N[C@@H](CC(N)=O)C(=O)N[C@H]2C(=O)N[C@H]3C(=O)N[C@H](C(=O)N[C@H](C(=O)O)c4cc(O)cc(O)c4-c4cc3ccc4O)[C@H](O)c3ccc(c(Cl)c3)Oc3cc2cc(c3O[C@@H]2O[C@H](CO)[C@@H](O)[C@H](O)[C@H]2O[C@H]2C[C@](C)(N)[C@H](O)[C@H](C)O2)Oc2ccc(cc2Cl)[C@H]1O` [Vancomycin, reference compound]: the “Cell morphology (TEM)” value with MRSA 831 [16] and in the series on MTCC 737 [17] was “distorted morphology” in each case. Moreover, the MIC with MRSA 831 [5] (Staphylococcus aureus, MRSA, read-out: Minimum inhibitory concentration) is 6.25 µg/mL (≈ 4.31 µM); with S. aureus (MTCC737) [13] (Staphylococcus aureus, MTCC737, 18 h, read-out: Minimum inhibitory concentration), 6.25 µg/mL (≈ 4.31 µM). Also, the “Concentration up to which non-hemolytic” value with red blood cells is reported as “up to 32 µg/ml”. For the same compound, the zone of inhibition at 50 µg/mL in the series on S. aureus (MTCC737) [6] (Staphylococcus aureus, MTCC737) was determined as 14 mm; in the series on MRSA 831 (MRSA) (Staphylococcus aureus, MRSA) it was 12 mm. For the same compound, the “Reduction in the bacterial load in thigh tissue” value with MRSA 831 [8] and in the series with MTCC 737 [20] was “approximately 1.9 log10” throughout. Besides, the “Biofilm disruption (CLSM)” value in the series with MRSA 831 [18] is “effective biofilm disruption and severe cell damage”; with MTCC 737 [19], “effective biofilm disruption and severe cell damage”. Also, the “Concentration showing similar activity on persister cell counts” value in the series with MTCC 737 persister cells is 100 µg/mL.
Take `COc1cc(-c2ccccn2)nc(CO)c1SC` [collismycin C]: the MRSA biofilm formation result in the series with MRSA is reported as “inhibited MRSA biofilm formation”.
